Results on twelve molecules are retold here after ChEMBL document CHEMBL1158413, “Design, synthesis and evaluations of acridone derivatives using Candida albicans--search for MDR modulators led to the identification of an anti-candidiasis agent” (2009).

In brackets after ≈: the same amount, converted by molar mass. Activity calls are given as the source filed them. The calls are words filed in the database; no cut-off is given here.

Assay [1] deals with DC3F/ADX. Briefly: Binding affinity to P-gp isolated from chinese hamster DC3F/ADX cells assessed as increase in ADP formation by drug-P-gp interaction assay relative to basal. The format is cell-free. The following applies: Cricetulus griseus.
In assay [2] the test system is Candida albicans. Briefly: Antifungal activity against Candida albicans CAI4 at 0.2 mg/ml after 48 hrs by spot assay. The format is functional, organism-based.
The subject of assay [3] is Candida albicans. Briefly: Antifungal activity against Candida albicans CAI4 at 0.5 mg/ml after 48 hrs by spot assay. The format is functional, organism-based.
The subject of assay [4] is Candida albicans. Kind of assay: Antifungal activity against Candida albicans CAI4 after 48 hrs. Conditions: CAI4, 48 h. The format is functional.
Assay [5] has as its system Candida albicans. Kind of assay: Antifungal activity against Candida albicans CAI4 at 6 ug/disk after 24 hrs by disk diffusion assay. Conditions: CAI4, 24 h, read-out: DIZ. It counts as functional. In general terms: Agar diffusion results depend on both activity and mobility in agar.
In assay [6] the test system is Candida albicans. Briefly: Antifungal activity against Candida albicans CAI4 at 0.313 mg/ml after 48 hrs by spot assay. The format is functional, organism-based.
In assay [7] the test system is Candida albicans. Briefly: Antifungal activity against Candida albicans CAI4 at 160 ug/ml in presence of cell-wall toxin CFW. It counts as functional, organism-based.
For assay [8], the system named is Candida albicans. Kind of assay: Inhibition of cell-wall integrity in Candida albicans CAI4 assessed as increase in Rhodamine-6G efflux at 230 ug/ml in absence of glucose. The format is functional, organism-based.
Assay [9] deals with Candida albicans. Briefly: Antifungal activity against Candida albicans CAI4 at 160 ug/ml in presence of cell-wall toxin CR. It counts as functional, organism-based.
Assay [10] has as its system Candida albicans. Briefly: Inhibition of cell-wall integrity in Candida albicans CAI4 assessed as increase in Rhodamine-6G influx at 230 ug/ml. It counts as functional, organism-based.
The test system of assay [11] is Candida albicans. Briefly: Antifungal activity against Candida albicans CAI4 at 200 ug/disk after 24 hrs by disk diffusion assay. The format is functional. Conditions: CAI4, 24 h, read-out: DIZ.
The test system of assay [12] is DC3F/ADX. Briefly: Binding affinity to P-gp isolated from chinese hamster DC3F/ADX cells assessed as increase in ADP formation at 0.05 uM by drug-P-gp interaction assay relative to basal. It counts as cell-free. Conditions: Cricetulus griseus.
For assay [13], the system named is Candida albicans. Briefly: Inhibition of cell-wall integrity in Candida albicans CAI4 assessed as ratio of glucose/ATP-driven Rhodamine-6G efflux to Rhodamine-6G efflux in absence of glucose/ATP at 230 ug/ml relative to control. It counts as functional, organism-based.

As to `Cc1cccc2c1c(=O)c1ccccc1n2CC(O)CN1CCCC1` (configuration not stated), the result in the assay on DC3F/ADX [1] was Active.
Turning to `O=C(O)c1cccc2c(=O)c3ccccc3n(CC(O)CN3CCOCC3)c12` (configuration not stated), the outcome with DC3F/ADX [1] was Active. The result in the assay with Candida albicans [2] and in the assay on Candida albicans [3] was inactive. In the assay on Candida albicans [4], the MIC80 (in general, the lowest concentration that inhibits either 80% of growth or 80% of the strains tested, depending on the study) was found to be 132 µg/mL (≈ 345 µM).
For the molecule `O=C(O)c1cccc2c(=O)c3ccccc3n(CC3CO3)c12` (configuration not stated), the outcome in the assay on DC3F/ADX [1] was Active.
For the molecule `Cc1cccc2c1c(=O)c1ccccc1n2CC(O)CN1CCC(N2CCCCC2)CC1` (configuration not stated), the outcome with DC3F/ADX [1] was Active.
In the case of `O=C(O)c1cccc2c(=O)c3ccccc3n(CC(O)CN3CCCCC3)c12` (configuration not stated), the outcome in the assay on DC3F/ADX [1] was Active. Also, the outcome in the assay with Candida albicans [2] and in the assay on Candida albicans [3] was inactive. This molecule registered an MIC80 against Candida albicans [4] of 405 µg/mL (≈ 1060 µM).
For `Clc1ccc(COC(Cn2ccnc2)c2ccc(Cl)cc2Cl)c(Cl)c1` (configuration not stated) [MICONAZOLE], the zone of inhibition at 6 µg/disc with Candida albicans [5] was 12 mm.
As to `Cc1cccc2c1c(=O)c1ccccc1n2CC(O)CN1CCCCC1` (configuration not stated), the result in the assay with DC3F/ADX [1] was Active.
On the same count and under the same terms, then `O=C(O)c1cccc2c(=O)c3ccccc3[nH]c12`, with “Active”.
In the case of `OC(Cn1cncn1)(Cn1cncn1)c1ccc(F)cc1F` [FLUCONAZOLE], the zone of inhibition at 6 µg/disc in the assay on Candida albicans [5] is 15 mm.
Consider `O=C(O)c1cccc2c(=O)c3ccccc3n(CC(O)CN3CCC(N4CCCCC4)CC3)c12` (configuration not stated), for which the result in the assay with Candida albicans [6], in the assay on Candida albicans [7], in the assay on Candida albicans [8], in the assay on DC3F/ADX [1], in the assay on Candida albicans [9] and in the assay with Candida albicans [10] was Active. The zone of inhibition at 200 µg/disc in the assay with Candida albicans [11] came out at 10 mm. Also, the Activity with DC3F/ADX [12] is 33%. For the same molecule, the outcome in the assay on Candida albicans [13] was inactive. Moreover, in the assay on Candida albicans [4], the MIC80 was determined as 234 µg/mL (≈ 505 µM).
For the molecule `O=C(O)c1cccc2c(=O)c3ccccc3n(CC(O)CN3CCCC3)c12` (configuration not stated), in the assay with DC3F/ADX [1], the outcome was Active.
Turning to `Cc1cccc2c1c(=O)c1ccccc1n2CC(O)CN1CCOCC1` (configuration not stated), the result in the assay with DC3F/ADX [1] was Active.
